What is called IC50 is the concentration that gives 50% inhibition.

Consider one compound from patent US7202245B2, “Substituted 4-amino[1,2,4]triazolo[4,3-a] quinoxalines” (Pfizer Inc., priority 2003, dated 2007).

This assay has as its target T1, GSK-3 (Homo sapiens, UniProt P49841).
T1 construct: made in house; as in Stambolic et al. 1996
Nature of the assay: GSK-3 inhibition, cell-free 33P-ATP peptide substrate assay. The class given is biochemical. As to conditions: read-out: inhibitory activity, expressed as IC50's, against GSK-3. Here is the method: The specific activities of the compounds of formula (I) in inhibiting GSK-3 can be determined in both cell-free and cell-based assays, both of which have been previously described in the relevant art. See, for example, U.S. Pat. Nos. 6,417,185 and 6,489,344, the disclosures of which are incorporated herein by reference in their entirety.
A cell-free testing assay can be generally carried out by incubating GSK-3 with a peptide substrate, radiolabeled ATP (e.g., for example, […], both of which are available from Amersham; Arlington Heights, Ill.), magnesium ions, and the compound to be assayed. […] The amount of γ^33P or γ^32P remaining in each well after washing is then quantified to determine the amount of radiolabeled phosphate incorporated into the peptide substrate. […]
Another example of a GSK-3 testing assay, similar to the one described hereinabove, is as follows: enzyme activities are assayed as the incorporation of ^33P from the gamma phosphate of ^33P-ATP (Amersham; Arlington Heights, Ill.; catalog #AH-9968) into biotinylated peptide substrate PKTP-KKAKKL. […] The final concentration of ATP is 0.5 μM (final specific radioactivity of 4 μCi/nmol), and the final concentration of substrate is 0.75 μM. […] Radioactivity associated with the beads is then quantified by standard scintillation counting. […]

T1 sequence (P49841 whole entry): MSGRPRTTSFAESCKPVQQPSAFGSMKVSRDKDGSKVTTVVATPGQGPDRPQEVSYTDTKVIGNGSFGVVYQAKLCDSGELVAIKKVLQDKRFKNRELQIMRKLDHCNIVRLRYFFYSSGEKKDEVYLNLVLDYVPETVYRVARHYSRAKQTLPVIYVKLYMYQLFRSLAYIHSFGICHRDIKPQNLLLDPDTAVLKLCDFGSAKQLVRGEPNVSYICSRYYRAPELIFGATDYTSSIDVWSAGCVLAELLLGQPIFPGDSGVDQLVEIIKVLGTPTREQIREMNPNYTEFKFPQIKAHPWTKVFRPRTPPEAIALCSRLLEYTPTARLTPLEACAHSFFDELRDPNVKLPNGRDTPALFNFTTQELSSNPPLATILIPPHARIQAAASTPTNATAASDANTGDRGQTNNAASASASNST

Turning to `O=c1[nH]nc2c(NCCNc3ccc(C(F)(F)F)cn3)nc3ccc(F)cc3n12` [Example 71, 8-Fluoro-4-[2-(5-trifluoromethyl-pyridin-2-Ylamino)-ethylamino]-2H-[1,2,4]triazolo[4,3-a]quinoxalin-1-one], the IC50 came out at 6 nM.
